Test results reported in the NIST ThermoML archive (doi:10.1016/j.tca.2013.03.025).

Assay: xn = mol fraction of the nth substance listed
Settings: 101 kPa, Liquid; for viscosity: Concentric cylinders viscometry; for mass density: Vibrating tube method

CCCCOC(=O)C(C)O (stereo not given) [butyl 2-hydroxypropanoate] + CCCO
Settings | mass density [kg/m3] | viscosity [mPa·s]
288.15 K, x1 = 0.1 | 841.535 | 2.632
288.15 K, x1 = 0.2 | 869.447 | 2.786
288.15 K, x1 = 0.3001 | 892.853 | 2.979
288.15 K, x1 = 0.3998 | 912.61 | 3.19
288.15 K, x1 = 0.5 | 929.664 | 3.406
288.15 K, x1 = 0.5999 | 944.359 | 3.623
288.15 K, x1 = 0.7001 | 957.317 | 3.83
288.15 K, x1 = 0.7996 | 968.544 | 4.04
288.15 K, x1 = 0.8998 | 978.506 | 4.287
288.15 K, x1 = 1 | 987.269 | 4.628
293.15 K, x1 = 0.1 | 837.385 | 2.305
293.15 K, x1 = 0.2 | 865.152 | 2.431
293.15 K, x1 = 0.3001 | 888.44 | 2.584
293.15 K, x1 = 0.3998 | 908.086 | 2.751
293.15 K, x1 = 0.5 | 925.055 | 2.921
293.15 K, x1 = 0.5999 | 939.67 | 3.092
293.15 K, x1 = 0.7001 | 952.563 | 3.257
293.15 K, x1 = 0.7996 | 963.731 | 3.426
293.15 K, x1 = 0.8998 | 973.646 | 3.622
293.15 K, x1 = 1 | 982.366 | 3.88
298.15 K, x1 = 0.1 | 833.207 | 2.034
298.15 K, x1 = 0.2 | 860.837 | 2.147
298.15 K, x1 = 0.3001 | 883.997 | 2.277
298.15 K, x1 = 0.3998 | 903.535 | 2.413
298.15 K, x1 = 0.5 | 920.415 | 2.548
298.15 K, x1 = 0.5999 | 934.96 | 2.679
298.15 K, x1 = 0.7001 | 947.782 | 2.81
298.15 K, x1 = 0.7996 | 958.893 | 2.946
298.15 K, x1 = 0.8998 | 968.763 | 3.104
298.15 K, x1 = 1 | 977.448 | 3.307
303.15 K, x1 = 0.1 | 828.994 | 1.796
303.15 K, x1 = 0.2 | 856.474 | 1.888
303.15 K, x1 = 0.3001 | 879.517 | 1.994
303.15 K, x1 = 0.3998 | 898.955 | 2.105
303.15 K, x1 = 0.5 | 915.748 | 2.219
303.15 K, x1 = 0.5999 | 930.218 | 2.328
303.15 K, x1 = 0.7001 | 942.977 | 2.439
303.15 K, x1 = 0.7996 | 954.036 | 2.554
303.15 K, x1 = 0.8998 | 963.865 | 2.685
303.15 K, x1 = 1 | 972.515 | 2.85
308.15 K, x1 = 0.1 | 824.744 | 1.603
308.15 K, x1 = 0.2 | 852.093 | 1.679
308.15 K, x1 = 0.3001 | 875.001 | 1.769
308.15 K, x1 = 0.3998 | 894.346 | 1.862
308.15 K, x1 = 0.5 | 911.045 | 1.957
308.15 K, x1 = 0.5999 | 925.444 | 2.05
308.15 K, x1 = 0.7001 | 938.146 | 2.143
308.15 K, x1 = 0.7996 | 949.162 | 2.238
308.15 K, x1 = 0.8998 | 958.949 | 2.346
308.15 K, x1 = 1 | 967.567 | 2.481
313.15 K, x1 = 0.1 | 820.45 | 1.431
313.15 K, x1 = 0.2 | 847.649 | 1.5
313.15 K, x1 = 0.3001 | 870.443 | 1.579
313.15 K, x1 = 0.3998 | 889.684 | 1.659
313.15 K, x1 = 0.5 | 906.306 | 1.739
313.15 K, x1 = 0.5999 | 920.642 | 1.818
313.15 K, x1 = 0.7001 | 933.287 | 1.899
313.15 K, x1 = 0.7996 | 944.258 | 1.982
313.15 K, x1 = 0.8998 | 954.012 | 2.075
313.15 K, x1 = 1 | 962.603 | 2.181
318.15 K, x1 = 0.1 | 816.108 | 1.287
318.15 K, x1 = 0.2 | 843.16 | 1.349
318.15 K, x1 = 0.3001 | 865.84 | 1.417
318.15 K, x1 = 0.3998 | 884.981 | 1.486
318.15 K, x1 = 0.5 | 901.531 | 1.554
318.15 K, x1 = 0.5999 | 915.803 | 1.623
318.15 K, x1 = 0.7001 | 928.398 | 1.693
318.15 K, x1 = 0.7996 | 939.33 | 1.766
318.15 K, x1 = 0.8998 | 949.054 | 1.847
318.15 K, x1 = 1 | 957.624 | 1.935
323.15 K, x1 = 0.1 | 811.714 | 1.169
323.15 K, x1 = 0.2 | 838.623 | 1.222
323.15 K, x1 = 0.3001 | 861.188 | 1.28
323.15 K, x1 = 0.3998 | 880.239 | 1.339
323.15 K, x1 = 0.5 | 896.715 | 1.398
323.15 K, x1 = 0.5999 | 910.93 | 1.458
323.15 K, x1 = 0.7001 | 923.482 | 1.519
323.15 K, x1 = 0.7996 | 934.378 | 1.584
323.15 K, x1 = 0.8998 | 944.076 | 1.653
323.15 K, x1 = 1 | 952.631 | 1.728
